Measured values published in patent publication US20060166189A1, “Methods for detecting invasion of a cell” (priority 2002, published 2006).

System: HeLa cells
Assay type: cell-based

cytosine arabinose [Ara C]
effect on β-galactosidase expression from vSC8 (late vaccinia promoter P11): completely blocked
